According to ChEMBL document CHEMBL1240323, “3D QSAR studies on a series of potent and high selective inhibitors for three kinases of RTK family” (J Mol Graph Model, 2007):

Target: Vascular endothelial growth factor receptor 2 (Homo sapiens, UniProt P35968)
Assay: Inhibition of KDR

Sequence of Vascular endothelial growth factor receptor 2 (P35968 whole entry): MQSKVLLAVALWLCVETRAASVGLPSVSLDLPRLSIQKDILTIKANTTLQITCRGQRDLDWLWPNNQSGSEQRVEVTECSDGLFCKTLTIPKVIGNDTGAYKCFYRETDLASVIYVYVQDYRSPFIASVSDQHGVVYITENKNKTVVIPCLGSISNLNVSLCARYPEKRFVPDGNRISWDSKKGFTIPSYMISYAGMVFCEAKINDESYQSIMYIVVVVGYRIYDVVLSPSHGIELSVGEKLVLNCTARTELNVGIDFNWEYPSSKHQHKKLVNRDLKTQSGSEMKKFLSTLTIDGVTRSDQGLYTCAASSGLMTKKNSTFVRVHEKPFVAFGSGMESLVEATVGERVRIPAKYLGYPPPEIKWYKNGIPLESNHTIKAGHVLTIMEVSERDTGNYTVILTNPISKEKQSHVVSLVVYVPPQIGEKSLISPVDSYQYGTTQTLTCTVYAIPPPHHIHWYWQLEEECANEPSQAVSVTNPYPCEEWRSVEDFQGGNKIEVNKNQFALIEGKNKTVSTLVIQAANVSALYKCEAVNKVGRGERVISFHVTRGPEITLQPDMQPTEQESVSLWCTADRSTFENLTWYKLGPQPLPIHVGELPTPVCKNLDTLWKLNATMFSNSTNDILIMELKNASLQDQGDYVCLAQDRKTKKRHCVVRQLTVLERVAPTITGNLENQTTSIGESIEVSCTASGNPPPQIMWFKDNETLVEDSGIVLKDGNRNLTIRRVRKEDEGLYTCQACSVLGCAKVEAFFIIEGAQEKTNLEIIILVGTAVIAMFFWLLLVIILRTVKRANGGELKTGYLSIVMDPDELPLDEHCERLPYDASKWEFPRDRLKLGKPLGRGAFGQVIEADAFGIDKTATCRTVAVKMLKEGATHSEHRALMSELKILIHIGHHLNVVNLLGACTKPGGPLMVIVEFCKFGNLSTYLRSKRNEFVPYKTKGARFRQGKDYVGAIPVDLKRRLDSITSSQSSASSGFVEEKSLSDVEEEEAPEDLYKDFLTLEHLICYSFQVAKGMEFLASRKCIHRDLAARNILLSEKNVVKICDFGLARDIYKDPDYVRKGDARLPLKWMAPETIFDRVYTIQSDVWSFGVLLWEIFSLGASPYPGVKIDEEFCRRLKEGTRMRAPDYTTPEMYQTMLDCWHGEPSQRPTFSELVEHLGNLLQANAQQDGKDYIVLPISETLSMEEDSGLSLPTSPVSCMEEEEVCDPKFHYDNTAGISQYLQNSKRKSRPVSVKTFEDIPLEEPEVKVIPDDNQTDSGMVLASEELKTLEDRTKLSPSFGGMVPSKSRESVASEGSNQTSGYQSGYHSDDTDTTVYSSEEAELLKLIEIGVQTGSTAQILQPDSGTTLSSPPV

IC50: 45.7 nM
SMILES: Cc1sc2ncnc(N)c2c1-c1ccc(NC(=O)Nc2cc(C(F)(F)F)ccc2F)cc1
